From article PMC11869560, “Anticancer and cancer preventive activities of shogaol and curcumin from Zingiberaceae family plants in KG-1a leukemic stem cells” (BMC Complementary Medicine and Therapies, 2025)
Values after ≈ are worked out from the molar mass of the structure shown.

Key:
[1] = system: WT1 protein expression in KG-1a cells; experiment: WT1 protein expression in KG-1a cells by Western blotting; format: cell-based, human
Description: (§1) KG-1a cells (1.5 × 10^5 cells/mL) were treated with compounds or extracts at different incubation times. Then, the cells were harvested and the whole proteins were extracted using a RIPA buffer (25 mM Tris-base, pH 7.6, 0.1% SDS, 1% Triton X-100, 150 mM NaCl, and 1 mM EDTA). The protein concentration was measured using the Folin-Lowry or Bradford assay. The whole protein lysates (30 µg/lane) were then separated through 7.5% SDS-PAGE under reducing conditions and then transferred to PVDF membranes. The membranes were blocked in 5% skim milk in PBS, pH 7.4 at RT for 2 h, then, target proteins were probed with specific primary antibodies (anti-WT1, anti-CD34, anti-GAPDH, anti-cleaved caspase-3, anti-cleaved PARP, anti-phospho-Akt, anti-phospho-c-Jun, anti-phospho-SAPK/JNK, and anti-YAP/TAZ) indicated in Table S10 which diluted at a ratio of 1:1,000 in PBS, pH 7.4 at RT for 2 h. After incubation, the membranes were rinsed 6 times with 0.1% Tween-20 (Sigma-Aldrich, MA, USA) in PBS, pH 7.4 (PBS-T), each time for 5 min. The reaction was followed by HRP-conjugated secondary antibody at 1:20,000 dilution in PBS, pH 7.4 at RT for 2 h, then, the membranes were rinsed 6 times for 5 min each with PBS-T. The proteins were shown using Immobilon Forte Western HRP substrate (Millipore, MA, USA). Finally, the protein band signal was quantified by using a scan densitometer (Bio-Rad Laboratories, CA, USA).

KG-1a cells [2] = experiment: Cell death analysis by PI staining and flow cytometry in KG-1a cells; format: cell-based, human; details: nocodazole 5–120 ng/mL, shogaol 6–9 µg/mL, curcumin various concentrations; time course
Description: Additionally, PI staining was used to investigate the cytotoxicity of the active compounds. KG-1a cells after exposure to the active compounds with various concentration were harvested at different incubation times and washed with ice-cold PBS, pH 7.4 for 2 times. Then, the cells were resuspended with PI in PBS, pH 7.4 at a ratio of 1:10,000. The percentage of dead cells was detected by flow cytometry (CytoFLEX S, Beckman Coulter, CA, USA) and analyzed by CytExpert program (Beckman Coulter, CA, USA).

KG-1a cells [3] = experiment: MTT cytotoxicity assay in KG-1a cells; format: cell-based, human; details: for Selectivity index (SI): IC50 for normal cells (PBMCs) / IC50 for cancer cells (KG-1a)
Description: (§2) MTT (3-(4,5-dimethylthiazol-2-yl)-2,5-diphenyltetrazolium bromide) assay was used to investigate the cytotoxicity of the test samples. KG-1a (1.5 × 10^4 cells/well), K562 (1.0 × 10^4 cells/well), PBMCs (1.0 × 10^5 cells/well), A549 (5.0 × 10^3 cells/well), MCF-7 (5.0 × 10^3 cells/well), and HeLa (5.0 × 10^3 cells/well) were seeded into a 96-well plate and incubated overnight at 37 °C with 5% CO2. […] After that, 5 mg/mL of MTT dye solution (Sigma-Aldrich, MA, USA) was added and incubated for 4 h. The produced formazan crystals were dissolved in 200 µL of DMSO (Sigma-Aldrich, MA, USA); then, the optical density (OD) was measured using an ELISA plate reader (Metertech, Taipei, Taiwan) at 578 nm with a reference wavelength of 630 nm. The percentage of surviving cells was calculated from the absorbance values of the test and control wells using the following Equation. 1 [drawing 1]
(§3) where ODsample is a mean absorbance in test well and ODvehicle control is a mean absorbance in VC well. The average percentage of surviving cells at each concentration obtained from triplicate experiments was plotted as a dose-response curve. Inhibitory concentration values at 50% growth (IC50 value) were defined as the lowest concentration of the test sample that inhibited cell growth by 50% compared to the untreated control.
(§4) To calculate IC50 values, a dose-response curve was fitted using non-linear regression analysis, as described in the GraphPad Prism guidelines (https://www.graphpad.com/support/faq/how-to-determine-an-icsub50sub/). The IC50 value was obtained by determining the point at which the curve intersected 50% growth inhibition. Non-linear regression graphs of the dose-response curve for each compound are provided in the supplementary data file (Figs. S1–S8).
where IC50 N is IC50 for normal cells and IC50 C is IC50 for cancer cells which were treated with the same compounds in both cells.

[4] = system: cleaved caspase-3 and PARP in KG-1a cells; experiment: Cleaved caspase-3 and cleaved PARP in KG-1a cells by Western blotting; format: cell-based, human; details: IC50 concentrations (curcumin 10 µg/mL, shogaol 3 µg/mL, nocodazole 10 ng/mL), 0–12 h
Description: as §1

KG-1a cells [5] = experiment: Cell cycle and apoptosis (sub-G1) assay by flow cytometry in KG-1a cells; format: cell-based, human; details: 48 h
Description: After treating KG-1a cells with active compounds at various concentrations for 48 h, the cells were pulsed with 10 µM BrdU (Sigma-Aldrich, MA, USA) for 20 min at 37 °C in an incubator with 5% CO2. Subsequently, the cells were harvested, washed with ice-cold PBS, pH 7.4 three times, and then fixed with 70% ethanol in PBS, pH 7.4 at −30 °C. Following fixation, the cells were washed and resuspended in 2 N HCl/0.5% Triton X-100 for 30 min at room temperature (RT). Then, 0.1 M sodium tetraborate decahydrate was added for 2 min at RT to neutralize the acid. Subsequently, the cells were stained with FITC-anti-BrdU antibody for 30 min at RT. After washing, the cells were resuspended in propidium iodide (PI) (Dojindo, Kumamoto, Japan) in PBS, pH 7.4 at a ratio of 1:1,000. The cell cycle phases were detected using a flow cytometer (CytoFLEX S, Beckman Coulter, CA, USA) and analyzed with the CytExpert program (Beckman Coulter, CA, USA).
The flow cytometry data were analyzed to assess both apoptosis and cell cycle distribution. Apoptosis was evaluated by determining the percentage of cells in the sub-G1 phase using the Nicoletti assay. For cell cycle analysis, populations in the G1, S, and G2/M phases were calculated after excluding the sub-G1 population to avoid interference from apoptotic cells, allowing for a clearer assessment of cell cycle arrest in different phases. Data were presented in separate graphs for the sub-G1 population and cell cycle phase distributions.

PBMCs = experiment: MTT cytotoxicity assay in PBMCs; format: cell-based, human
Description: PBMCs were isolated from blood samples using the Ficoll-Hypaque technique. Initially, 10–20 mL of blood was collected in a heparin tube at a ratio of 1:500 from a minimum of three healthy volunteers. Subsequently, the blood samples were diluted with Phosphate buffer saline (PBS), pH 7.4, at a ratio of 1:1 to reduce viscosity. Histopaque-1077 (Sigma-Aldrich, MA, USA) was then underlaid the diluted sample and centrifuged at 400×g for 30 min. The resulting PBMCs were collected, washed with PBS, pH 7.4, and prepared for further experiments.
as §2, §3, §4

[6] = system: CD34 protein expression in KG-1a cells; experiment: CD34 protein expression in KG-1a cells by Western blotting; format: cell-based, human; details: IC20 concentrations, 48 h, normalized to GAPDH
Description: as §1

RAW264.7 cells = experiment: Cytotoxicity (IC20, cell viability) in RAW264.7 cells; format: cell-based; details: incubation for 48 h
Description: MTT (3-(4,5-dimethylthiazol-2-yl)-2,5-diphenyltetrazolium bromide) assay was used to investigate the cytotoxicity of the test samples. […] After that, 5 mg/mL of MTT dye solution (Sigma-Aldrich, MA, USA) was added and incubated for 4 h. The produced formazan crystals were dissolved in 200 μL of DMSO (Sigma-Aldrich, MA, USA); then, the optical density (OD) was measured using an ELISA plate reader ([…], Taiwan) at 578 nm with a reference wavelength of 630 nm. The percentage of surviving cells was calculated from the absorbance values of the test and control wells using the following Equation. 1 [drawing 1] […] Afterward, supernatants were collected, and the levels of TNF-α and NO were measured using the Mouse TNF alpha Uncoated ELISA Kit (InvitrogenTM, ThermoFisher Scientific, MA, USA) and the Total Nitric Oxide Assay Kit (InvitrogenTM, ThermoFisher Scientific, MA, USA), respectively, according to the manufacturer's instructions.

[7] = system: NO production in LPS-activated RAW264.7 cells; experiment: NO production in LPS-activated RAW264.7 cells; format: cell-based, mouse; details: IC20 concentration, LPS-activated, 24 h
Description: For the measurement of tumor necrosis factor-alpha (TNF-α) and NO, RAW264.7 cells were pre-treated with plant extracts and active compounds at a non-cytotoxic dose (IC20) (Table S9) or 1 µg/mL of dexamethasone (positive control) in a 24-well plate for 2 h. Subsequently, 1 µg/mL of lipopolysaccharide (LPS) (Cat No. 00497693, Invitrogen™, MA, USA) was added to each well, and the cells were incubated for an additional 24 h to allow sufficient time for the compounds to exert measurable anti-inflammatory effects while maintaining cell viability. Afterward, supernatants were collected, and the levels of TNF-α and NO were measured using the Mouse TNF alpha Uncoated ELISA Kit (Invitrogen™, ThermoFisher Scientific, MA, USA) and the Total Nitric Oxide Assay Kit (Invitrogen™, ThermoFisher Scientific, MA, USA), respectively, according to the manufacturer’s instructions.
The percentage of NO or cytokine inhibitions were calculated using the following equation: […]
where A is the level of cytokine or NO without treatment, and B is the level of cytokine or NO with treatment.

KG-1a cells [8] = experiment: Trypan blue exclusion test, cell numbers of KG-1a cells; format: cell-based, human; details: IC20 concentrations, 48 h
Description: (§5) This test was used to confirm the cytotoxicity of the test samples. The cancer cells after exposure to crude ethanolic extracts and active compounds for 48 h were harvested and washed with ice-cold PBS, pH 7.4 for 3 times. Then, the cells were resuspended with PBS, pH 7.4. The cell suspensions were diluted with PBS, pH 7.4 at the appropriate dilution before being mixed with 0.2% trypan blue solution at 1:2 dilution for cell count on a hemocytometer. From this test, the viable cells and the dead cells could also be obviously detected.
as §5, with “crude ethanolic extracts and active compounds. KG-1a” for “the test samples. The cancer”

[9] = active compounds and drugs, MTT, 48 h

## COC(=O)Nc1nc2ccc(C(=O)c3cccs3)cc2[nH]1 [Nocodazole, nocodazole, reference compound]
[1]; IC50 concentration, up to 12 h
  effect on WT1 expression: failed to reduce WT1 expression even after 12 h of incubation
KG-1a cells [2]
  induction of cell death (PI staining): significant induction of cell death after 24 h of incubation
KG-1a cells [3]; Homo sapiens, KG-1a, as used for Western blotting, read-out: IC50 concentration in KG-1a cells
  IC50: 0.01 µg/mL (≈ 0.0332 µM)
KG-1a cells [3]; Homo sapiens, KG-1a, as used in the cell cycle assay, read-out: IC20 concentration in KG-1a cells
  IC20: 0.006 µg/mL (≈ 0.0199 µM)
[4]
  time to activation of cleaved caspase-3 and PARP: failed to induce the activation of cleaved caspase-3 and PARP even after 12 h of incubation
KG-1a cells [5]; IC20 concentration (nocodazole 6 ng/mL, curcumin 3 µg/mL, shogaol 0.12 µg/mL)
  effect on sub-G1 population compared to VC: significantly increased the sub-G1 population
KG-1a cells [5]; IC20 concentration, sub-G1 excluded
  increase of proportion of cells in G2/M phase: 23.48 ± 1.35%

## CCCCC[C@H](O)CC(=O)CCc1ccc(O)c(OC)c1 [Gingerol, gingerol]
[1]; IC20 concentrations, 48 h, normalized to GAPDH
  decrease of WT1 protein level compared to VC: 43.98 ± 8.93%
PBMCs; Table S8, PBMCs, first replicate
  IC50 value R1: > 100 µg/mL
PBMCs; Table S8, PBMCs, mean of R1-R3
  IC50 value Mean: > 100 µg/mL
PBMCs; Table S8, PBMCs, third replicate
  IC50 value R3: > 100 µg/mL
PBMCs; [9]
  IC50 PBMCs: > 100 µg/mL
PBMCs; incubation for 48 h
  IC20 PBMCs (inhibitory concentration at 20% growth): 76.94 ± 4.13 µg/mL (≈ 261 µM)
KG-1a cells [3]; 48 h
  Selectivity index (SI): > 1.30
KG-1a cells [3]; 48 h, listed as gingerol
  Selectivity index (SI): greater than 1
KG-1a cells [3]; Table S7, KG-1a, first replicate
  IC50 value R1: 77.86 µg/mL (≈ 264 µM)
KG-1a cells [3]; Table S7, KG-1a, third replicate
  IC50 value R3: 77.08 µg/mL (≈ 262 µM)
KG-1a cells [3]; [9]
  IC50 KG-1a: 76.77 ± 1.28 µg/mL (≈ 261 µM)
KG-1a cells [3]; incubation for 48 h
  IC20 KG-1a (inhibitory concentration at 20% growth): 14.09 ± 3.87 µg/mL (≈ 47.9 µM)
[6]
  decrease of CD34 protein level compared to VC: 31.95 ± 5.70%
RAW264.7 cells
  IC20 RAW264.7 (inhibitory concentration at 20% growth): 16.73 ± 4.64 µg/mL (≈ 56.8 µM)
[7]
  effect on NO production compared to dexamethasone (positive control): had no effect
KG-1a cells [8]
  decrease of total cell number compared to VC: 31.39 ± 8.69%
  normalized viable cell counts: 979.50 ± 8.90 × 10^3 cells per 1 million total cells
